Structures can show the parent of a compound that is named as a salt.

Assay [1] deals with chlordiazepoxide + amphetamine induced hyperactivity, Sprague Dawley rats. The assay can be described thus: Mania/bipolar model: chlordiazepoxide + d-amphetamine induced hyperactivity, locomotor activity. Format: in vivo, rat.
Experimental: Subjects: Female Sprague Dawley rats (Hilltop Lab Animals, Scottdale, Pa.), weighing 150-200 g at the beginning of the experiment, were used in the experiment described in this example. Animals were individually housed in standard shoebox cages and maintained on a 12:12 h light-dark cycle (lights on at 0600). All animals were allowed food and water ad libitum throughout the experimental procedure. Prior to arrival to the testing facility, the rats were anesthetized with vaporized Isoflurane and catheters were surgically implanted into the jugular vein. The catheters were made of silastic medical grade tubing (15 cm long, 0.02″ internal diameter, 0.037″ external diameter), fastened with sutures to muscle near the jugular vein and at the nape of the neck, then sealed with smooth pieces of monofilament that were secured at the nape of the neck.
Lithium chloride (LiCl), chlordiazepoxide hydrochloride (CDP) and d-amphetamine sulfate (Amph) were obtained from Sigma Chemical Company (St. Louis, Mo.). LiCl was dissolved in a vehicle of isotonic saline and injected intraperitoneally (i.p.) at a dose of 2 mEq/kg. CDP and Amph were dissolved in a vehicle of sterile water (Phoenix Scientific, Inc., St. Joseph, Mo.) and injected subcutaneously (s.c.) at a dose of 12.5 mg/kg and 1.18 mg/kg, respectively. Combination treatment of CDP and Amph represented the s.c. injection of a 1:1 mixture of both compounds at the above referenced doses. Compound of Example 1 was dissolved in dimethylsulfoxide (DMSO) and brought to volume with propylene glycol (PG) such that the final vehicle represented a 4% DMSO/96% PG solution. […]
Thirty minutes after final s.c. dosing with either CDP+Amph, Amph alone or vehicle, rats were placed in locomotor activity testing apparatus. […] Data were analyzed using a priori planned analyses of variance where an effect was considered significant if p<0.05.
Assay [2] concerns cortical spreading depression (KCl application), Long-Evans rats. The assay can be described thus: In vivo electrophysiology: number of cortical spreading depressions produced by KCl application. The settings on record: 1 mg/kg, i.v., 15 min prior to KCl; rat. The text has this:
Male Long-Evans rats (300-450 g) were used in the present studies (Harlan). Rats were anesthetized with urethane anesthesia (1.2 g/kg i.p.) and placed in a stereotaxic frame. Under anesthesia a Silastic catheter was placed in the jugular vein of the rats. The skull was exposed using a scalpel. A small hole (approximately 2 mm by 3 mm) was drilled in to the skull rostral to the lambdoid suture using a microdrill and steel burr. The dura was disrupted and a drop of mineral oil was placed in this hole to prevent dehydration of the underlying cortex. Ultimately this hole was used for the application of crystalline KCl (described below).
Two additional holes were place in the skull unilaterally at 4 and 8 mm rostral to the application hole. Silver wire electrodes were placed in these latter holes and secured to the skull using acrylic cement. A similar silver wire electrode was sutured to the nuchal muscle to serve as a reference electrode. Electrical DC recordings were obtained using a standard differential amplifier (Warner, DP-304) and commercially available data acquisition equipment (Cambridge Electronic Design, 1401 A-D converter and Spike2 software).
All experimental procedures were conducted while the rats were maintained under anesthesia. Rats were injected with test compound, valproic acid or vehicle (100% PEG-400) 15 min prior to the application of crystalline KCl to the application site described above. All injections were given via the jugular vein at a volume of ≦0.5 ml/kg. Only one treatment was tested per animal. The effect of valproic acid was also determined in this study due to the fact that Depakote™ (divalproex sodium) is one of only three drugs currently indicated for the prophylatic treatment of migraine headache. Valproic acid (30-200 mg/kg i.v.) was obtained from Sigma Chemical Company and was dissolved in a vehicle of isotonic saline.
KCl was applied to the application site for 10 min and was then removed using a saline soaked cotton swab. Mineral oil was subsequently reapplied to the application site. Typically, this application produced a long-lasting series of spreading depressions. The number of spreading depressions produced by this KCl application was the primary measure used to access the effectiveness of compounds in this assay.
Data were analyzed using analyses of variance followed by the Dunnett post-hoc test for pairwise comparisons, when appropriate. A difference was considered significant when p≦0.05.
The effect of representative compounds of Formula I on spreading depression is expressed as the percent reduction from vehicle control and is listed in Table 3.

In the next assay the target is T1, mKCNQ2 channels (Mus musculus, UniProt Q9Z351).
T1 construct: expressed in transfected cells
The assay can be described thus: Whole-cell patch-clamp, HEK 293 stable cell line expressing mKCNQ2 channels. The settings on record: HEK 293 mKCNQ2, Hill fit. Format: cell-based. As for the experimental part:
Whole-cell patch-clamp recordings were made from an HEK 293 stable cell line expressing mKCNQ2 channels, maintained in culture for 1-2 days. Patch pipettes had initial resistances of 2.5-4 MΩ. Currents were recorded with an EPC-9 amplifier (HEKA, Lambrecht, Germany) controlled with software (Pulse, HEKA) run on a standard lab PC. Series resistance compensation was used during current recording, and set at 80%. The series resistance (R) and cell capacitance (C) were determined electronically by subtracting the capacitive currents at the onset and offset of a 5 mV voltage step. The cancellation of whole-cell capacitance transients was virtually complete in all cells. Analog current signals were low-pass filtered at 2.9 kHz using a four-pole Bessel filter −3 dB) and stored on a local network server computer at a sampling rate of […]. All recordings were performed at room temperature (20-22° C.). The pipette solution contained (mM): KCl, 150; CaCl2, 2.5; EGTA, 5; MgCl2, 1; HEPES, 10; pH to 7.3 with KOH, and Osmolality of 290-300 mOsm. The extracellular solution contained (mM): NaCl, 140; KCl, 2.5; CaCl2, 2.5; MgCl2, 1; glucose, 10; HEPES, 10; pH to 7.3 with NaOH, and Osmolality of 305-310 mOsm
Concentration response data were generated by measuring the difference in the steady-state amplitude of current in the presence of compound at the end of a 600 ms voltage-clamp step from a holding potential of −80 mV. The concentration-response data were fitted with Hill-type equations: […]
where I is the steady-state current at a given concentration of agonist [A]; and Imax, EC50 and nH are parameters estimated from the curve fit. In some cases the concentration-response data were fitted with equations consisting of the sum of two Hill-type components. Current-voltage (I/V) relationships for agonist-evoked currents were obtained by performing 600 ms voltage steps (−110 mV to +40 mV) in the absence and presence of agonist.
For orientation: Patch clamp records ionic current or voltage across a cell membrane.

Assay [3] concerns nerve injury-induced tactile allodynia (L5/L6 ligation), Sprague Dawley rats. The assay can be described thus: Chung model of neuropathic pain (Chung surgery and von Frey test). It is filed as in vivo, rat. The settings on record: 3 mg/kg, i.v., von Frey thresholds over 90 min. Here is the method:
To test agents for activity against peripheral mononeuropathy nerve injury-induced tactile allodynia, male Sprague Dawley rats (wt. 120-160 g) were surgically prepared with unilateral tight ligation of spinal nerves L5 and L6 following the method of Kim and Chung (Kim S. H., Chung J. M. (1992) Pain, September;50(3):355-63). After 3-4 weeks recovery, paw withdrawal to light touch was assessed as described by Chaplan et al. (Chaplan S. R., et al., (1994) J. Neurosci Methods, July;53(1):55-63). In brief, rats are placed in a plastic cage with a wire mesh bottom and allowed to acclimate for 15-30 minutes, until cage exploration and grooming stops. The plantar surface of each hind paw is touched with a series of von Frey hairs with varying stiffness requiring a known force to buckle to determine the nociceptive threshold. Adult male Sprague Dawley rats (avg. wt. 340 g) were tested in the present study. After acclimation, baseline von Frey thresholds were assessed for the injured hindpaw at −15 min. All test compounds were delivered at 0 min by the intravenous (i.v.) route in a volume of 0.5-2 ml/kg. The vehicle for test compounds was 100% PEG-400. For gabapentin the vehicle was deionized H2O. Animals were tested in one of the following 4 treatment conditions: (a) PEG400, (b) gabapentin (Neurontin) 100 mg/kg, (c) test compounds 3 mg/kg and (d) test compounds 10 mg/kg. Following drug administration, von Frey thresholds are measured at 15, 30, 60 and 90 min. Data were analyzed by a 2-way repeated measures analysis of variance followed by Dunnett's test (p<0.05). Experimenters were kept blind to the treatment condition of rats they tested.
Reversal of neuropathic pain behavior may be expressed as a percentage (0-100%) of the maximum possible effect, over and above the vehicle effects. Specifically, drug effects can be described in terms Δ% MPE according to the following equation: [formula]
AUCdrug=area under the curve for von Frey thresholds of the drug-treated group;
AUCvehicle=area under the curve for von Frey thresholds in the vehicle group;
Time=duration of post-drug testing period (90 min); and
Max=maximum von Frey threshold (15 g).
For example, a compound which immediately reversed neuropathic pain behavior to normal levels, such that animals only responded to the highest von Frey filament (15 g), and maintained normal levels through out the post-drug testing period (90 min) would be calculated as Δ% MPE=100%.

For assay [4], the system named is streptozoticin-induced tactile allodynia, Sprague Dawley rats. The assay can be described thus: Diabetic model of neuropathic pain (streptozoticin and von Frey test). It is filed as in vivo, rat. The settings on record: 10 mg/kg, i.v.; von Frey thresholds over 90 min; STZ diabetic model. Here is the method: To test agents for activity against systemic polyneuropathy nerve injury-induced tactile allodynia, animals were treated with streptozoticin (STZ) to create a diabetic condition by selective cytotoxic action upon pancreatic β-islet cells that produce insulin following the method of Courteix, et al. (Courteix C., et al., (1993) Pain, April;53(1):81-8). In brief, male Sprague Dawley rats (wt. 200-275 g) received an injection of STZ (75 mg/kg, i.p.) and diabetes was confirmed three weeks after STZ injection by measurement of tail vein blood glucose levels. After 3-4 weeks, paw withdrawal to light touch was assessed as described by Chaplan et al. (Chaplan S. R., et al., (1994) J Neurosci Methods, July;53(1):55-63). In brief, rats are placed in a plastic cage with a wire mesh bottom and allowed to acclimate for 15-30 minutes, until cage exploration and grooming stops. The plantar surface of each hind paw is touched with a series of von Frey hairs with varying stiffness requiring a known force to buckle to determine the nociceptive threshold. Adult male Sprague Dawley rats (avg. wt. 300 g) were tested in the present study. After acclimation, baseline von Frey thresholds were assessed for the injured hindpaw at -15 min. All test compounds were delivered at 0 min by the intravenous (i.v.) route in a volume of 0.5-2 ml/kg. […] Animals were tested in one of the following 4 treatment conditions: […] Following drug administration, von Frey thresholds are measured at 15, 30, 60 and 90 min. Data were analyzed by a 2-way repeated measures analysis of variance followed by Dunnett's test (p<0.05). Experimenters were kept blind to the treatment condition of rats they tested. […] Specifically, drug effects can be described in terms Δ% MPE according to the following equation: {[…] under the curve for von Frey thresholds of the drug-treated group; AUCvehicle=area under the curve for von Frey thresholds in the vehicle group; Time=duration of post-drug testing period (90 min); and Max=maximum von Frey threshold (15 g).

T1 sequence (Q9Z351 whole entry): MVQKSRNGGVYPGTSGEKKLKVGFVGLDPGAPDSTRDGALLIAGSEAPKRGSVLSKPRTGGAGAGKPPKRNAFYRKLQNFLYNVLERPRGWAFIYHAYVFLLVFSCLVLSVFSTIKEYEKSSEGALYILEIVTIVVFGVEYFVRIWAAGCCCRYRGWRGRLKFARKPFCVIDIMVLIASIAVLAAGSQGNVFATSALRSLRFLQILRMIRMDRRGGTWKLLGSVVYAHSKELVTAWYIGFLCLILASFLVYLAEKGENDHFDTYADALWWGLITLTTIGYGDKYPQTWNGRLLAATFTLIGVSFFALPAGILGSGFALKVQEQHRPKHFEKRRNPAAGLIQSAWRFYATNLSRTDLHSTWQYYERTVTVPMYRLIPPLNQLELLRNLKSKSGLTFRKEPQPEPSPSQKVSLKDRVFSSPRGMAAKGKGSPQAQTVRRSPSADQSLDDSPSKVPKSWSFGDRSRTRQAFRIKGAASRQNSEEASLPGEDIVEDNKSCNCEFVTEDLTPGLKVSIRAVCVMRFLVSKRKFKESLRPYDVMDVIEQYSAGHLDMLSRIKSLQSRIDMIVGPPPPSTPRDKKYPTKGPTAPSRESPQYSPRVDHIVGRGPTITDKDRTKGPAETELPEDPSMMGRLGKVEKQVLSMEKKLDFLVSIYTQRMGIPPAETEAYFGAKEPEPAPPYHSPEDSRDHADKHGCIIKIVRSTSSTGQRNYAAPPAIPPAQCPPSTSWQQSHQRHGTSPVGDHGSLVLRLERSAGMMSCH

Turning to `C[C@H](N)Cc1ccccc1` [d-amphetamine, d-amphetamine sulfate, reference compound], the “Horizontal Activity Counts” value in assay [1] (rat, in vivo) is on record as 8,772.3 + 426.02 counts.

What is called EC50 is the concentration needed to bring the measured effect to its halfway point. High values mean weaker potency, low ones greater potency. As to `C[C@H](NC(=O)/C=C/c1cc(F)ccc1F)c1cccc(N2CCOCC2)c1` [Example 90, (S)-3-(2,5-Difluoro-phen-yl)-N-[1-(3-morpho-lin-4-yl-phenyl)-eth-yl]-acrylamide], the “% Reduction (number of spreading depressions, from vehicle control)” value in assay [2] was 37 (1 mg/kg, i.v.) %. The molecule also registered a concentration giving a half-maximal response (EC50) at mKCNQ2 channels (@ −40 mV) of 1.2 µM. Further, the Emax at mKCNQ2 channels (HEK293, read-out: Imax (%)) worked out at 523%. The “AUC (Δ% MPE)” value is on record as 13 (3 mg/kg, i.v.) Δ% MPE in assay [3] and 56 (10 mg/kg, i.v.) Δ% MPE in assay [4].

As to `C[C@H](NC(=O)/C=C/c1ccc(F)cc1)c1ccc2ccccc2c1` [Compound of Example 1], the “Horizontal Activity Counts” value in assay [1] (5 mg/kg i.v. 45 minutes pre-test, then chlordiazepoxide + d-amphetamine, first 10 minutes of testing) is 7,859.2 + 661.21 counts. Moreover, the “Effect on augmentation of locomotor scores produced by the combination treatment” value in assay [1] (5 mg/kg i.v. 45 minutes pre-test, F(1,16)=10.4, p=0.005) is “significantly prevented”.

The values above are taken from patent US6831080B2, “Cinnamide derivatives as KCNQ potassium channel modulators” (Bristol-Myers Squibb Company, priority 2001, dated 2004).
